The values below come from PMC10081362 (Research Square, 2023).

The subject of data set [1] is OXTR+ neurons in the auditory cortex. In kind it is cell-based, mouse. Here is the method:
In vitro recordings were performed in acute slices of the auditory cortex prepared from male and female 2–5 month old OXTRcre∷Ai9 mice. Mice were deeply anesthetized with 5% isoflurane and perfused transcardially with ice-cold dissection buffer containing (in mM): 87 NaCl, 75 sucrose, 2.5 KCl, 1.25 NaH2PO4, 0.5 CaCl2, 7 MgCl2, 25 NaHCO3, 1.3 ascorbic acid, and 10 D-glucose, bubbled with 95%/5% O2/CO2 (pH 7.4). Following perfusion and decapitation, brains were removed and placed in the cold buffer solution, and slices (250–300 μm thick) were prepared with a vibratome (Leica P-1000). Slices were placed in warm artificial cerebrospinal fluid (ACSF, in mM: 124 NaCl, 2.5 KCl, 1.5 MgSO4, 1.25 NaH2PO4, 2.5 CaCl2, and 26 NaHCO3) (33–35 °C) for <30 minutes, then cooled to room temperature (22–24 °C) for at least 30 minutes before use. Slices were transferred to the recording chamber and superfused (2.5–3 ml min^−1) with oxygenated ACSF at 33 °C. Whole-cell current-clamp recordings were made from layer 2/3 pyramidal cells with a Multiclamp 200B or 700B amplifier (Molecular Devices, San Diego). Cortical regions and layers were identified using IR video microscopy (Olympus, Japan), and OXTR-positive neurons were identified based on expression of tdTomato, visualized with an Olympus 40 × water- immersion objective with TRITC filter. […]

In data set [2] the target is T1, OXTR (Homo sapiens, UniProt P30559).
T1 construct: host or cells: CHO-K1, stably transfected
T1 sequence (P30559 1-389): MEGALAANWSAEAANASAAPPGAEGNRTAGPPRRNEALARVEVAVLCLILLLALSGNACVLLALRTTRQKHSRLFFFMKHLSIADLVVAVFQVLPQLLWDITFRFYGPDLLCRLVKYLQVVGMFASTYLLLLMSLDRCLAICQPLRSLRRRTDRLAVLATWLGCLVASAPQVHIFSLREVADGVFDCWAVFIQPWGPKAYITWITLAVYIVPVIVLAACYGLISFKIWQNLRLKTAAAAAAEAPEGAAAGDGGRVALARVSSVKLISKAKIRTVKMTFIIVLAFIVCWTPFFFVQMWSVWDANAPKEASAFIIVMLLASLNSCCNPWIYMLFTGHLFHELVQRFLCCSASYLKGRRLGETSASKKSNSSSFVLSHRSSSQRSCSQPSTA
Nature of the data set: Radioligand competitive binding assay (NIMH PDSP). On the procedure: Radioligand binding assays were carried out by the (NIMH) Psychoactive Drug Screening Program[61]. The detailed experimental protocols for the radioligand assay are available on the NIMH PDSP website at http://pdsp.med.unc.edu/UNC-CH%20Protocol%20Book.pdf. […] Binding data were analyzed and plotted using Prism 8 (GraphPad, San Diego, CA).

The target of data set [3] is T1, OXTR. Nature of the data set: Calcium flux fluorescence assay (FLUO-8) in CHO-K1 cells stably expressing OXTR. In kind it is cell-based. Here is the method:
Stably transfected CHO-K1 cell lines overexpressing OXTR or V1a were obtained from Dr. Bryan Roth via the National Institute of Mental Health (NIMH) Psychoactive Drug Screening Program. The cells were cultured and maintained in Hams F12 medium (Gibco, Waltham, MA) supplemented with 400 μg/ml G418 (Gibco, Waltham, MA), 10% heat-inactivated FBS (Gibco, Waltham, MA), 15 mM HEPES (Gibco, Waltham, MA), 100 units ml^−1 of penicillin, 100 μg ml^−1 of streptomycin. The cells were grown in an atmosphere of 37°C and 8% CO2 and were passaged following trypsinization with Trypsin-LE (Gibco, Waltham, MA). CHO-K1 cells overexpressing OXTR were seeded overnight at 50,000 cells/100 μL/well in a black wall/clear bottom 96-well plate pretreated with poly-lysine (Gibco, Waltham, MA). […] The calcium flux assay was carried out on a FlexStation 3 Microplate Reader (Molecular Devices, San Jose, CA).

Data set [4] in a line: UV-Vis absorption spectra upon 365 nm irradiation. In kind it is physicochemical. Particulars: 365 nm LED, 3 mW; 20 μM, 1% DMSO/PBS; absorption spectrum unchanged. On the procedure: All measurements were performed in the dark or under red light. Samples were stored at −20 °C. UV-Vis spectroscopy was performed using a Cary 60 UV-Vis Spectrophotometer equipped with a PCB 1500 High-Performance Peltier thermostat (Agilent Technologies, Santa Clara, CA). Samples were measured using ultra-micro cuvettes with a 10 mm light path (BrandTech, Essex, CT). Irradiation was performed using an Optoscan Monochromator equipped with an Optosource High-Intensity Arc Lamp (Cairn Research, Kent, UK) set to 15 nm full width at half maximum and installed with a 75 W UXL-S50A xenon arc lamp (USHIO, Tokyo, JP). The light source was set to 365 nm, and the power output was measured at the sample position using a PM100D compact power and energy meter console and S120VC Si photodiode sensor (Thorlabs, Newton, NJ). A constant 3 mW power output at 365 nm was maintained throughout the experiments. The monochromator was controlled using a custom MATLAB program, and data were analyzed and plotted using Prism 8 (GraphPad, San Diego, CA).
For measuring the UV-visible absorption spectra, we prepared a […] DMSO stock solution of each respective compound, diluted to 20 μM (1% DMSO in PBS). A sample (1 mL) of the solution (20 μM) was transferred to a cuvette and measured by under ambient conditions (24 °C). […]

The subject of data set [5] is mammary tissue from lactating GCaMP6f∷K5CreERT2 mice. Briefly: Ex vivo three-dimensional time-lapse imaging of lactating mammary tissue. In kind it is cell-based, mouse. Particulars: 85 nM oxytocin in bath. Here is the method: Mammary glands were harvested from lactating GCaMP6f;K5CreERT2 mice diced into 3- to 4- mm^3 pieces and loaded with CellTracker Red (1.5 μM, ThermoFisher C34552, ThermoFisher, Waltham, MA) for at least 30 minutes in DMEM/F12 containing 10% FCS. Under these conditions, CellTracker preferentially labels luminal cells. […] Samples were imaged on a Leica TCS SP8 inverted microscope (Leica, Germany) with 20× 0.75NA HC PL APO CS2 objective. For uncaging, a region of interest (ROI) was targeted with a 405 nm laser at 100% laser power for 3s each trial. […] Protocol for image processing and analysis was previously reported in (Stevenson et al., 2020)[48].

`CC[C@H](C)[C@@H]1NC(=O)[C@H](Cc2ccc(OCc3ccccc3[N+](=O)[O-])cc2)NC(=O)[C@@H](N)CSSC[C@@H](C(=O)N2CCC[C@H]2C(=O)N[C@@H](CC(C)C)C(=O)NCC(N)=O)NC(=O)[C@H](CC(N)=O)NC(=O)[C@H](CCC(N)=O)NC1=O` [cOT1]: the “toxic effects on neurons in slices” value in data set [1] is “without apparent toxic effects”. The IC50 (in general, the point on the concentration scale where inhibition reaches its midpoint) in data set [2] was 2.01 µM.

For the molecule `CC[C@H](C)[C@@H]1NC(=O)[C@H](Cc2ccc(O)cc2)NC(=O)[C@@H](N)CSSC[C@@H](C(=O)N2CCC[C@H]2C(=O)N[C@@H](CC(C)C)C(=O)NCC(N)=O)NC(=O)[C@H](CC(N)=O)NC(=O)[C@H](CCC(N)=O)NC1=O` [oxytocin], the “peak depolarization of OXTR+ neurons” value in data set [1] (1 μM oxytocin wash-on, or cOT1 wash-in and 365 nm light pulsed at 20 Hz, Fig. 4k) was “significant membrane depolarization”. The “activation of OXTR+ cells in presence of OXTR antagonist OTA” value in data set [3] (1 μM agonist with 10 μM OTA, after photolysis with 365 nm LED, Fig. 2e) was “failed to activate”. The “fluorescence (calcium flux)” value in data set [3] (oxytocin 1 μM, Fig. 2d, normalized to maximal response produced by oxytocin, mean ± SEM, n=5 wells) worked out at 142.4±1.8. In addition, in data set [4], the “duration of stability towards 365 nm irradiation” value is “at least 30 minutes”. Further, the “calcium and contraction response to whole-tissue wash on” value in data set [5] is “increase in intracellular calcium, followed by cell and alveolar contraction across all cells”.
